According to patent publication US9309242B2, “Substituted pyrido[2,3-b]pyrazines as FGFR kinase inhibitors” (priority 2011, dated 2016):
Where two headings read alike, the source gives them in different places.

Assays:
[1] = target: T1, Ba/F3-FGFR3-transfected cells (Homo sapiens, UniProt P22607); experiment: Ba/F3-FGFR3 (minus IL3) cellular proliferation assay, Alamar Blue; format: cell-based
T1 construct: BAF3-FGFR3 (MIN IL3) pIC50; other: minus IL3
How it was run: (§1)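 Read-out: resazurin-based Alamar Blue fluorescence (ex 540 nm, em 590 nm) after a 4 h dye incubation. FGFR3-transfected Ba/F3 cells, 20000 per well, are exposed to compound for 24 h at 37° C in RPMI-1640/10% FBS. Plus-IL3 counterscreen adds 10 ng/ml murine IL3.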

FGFR4 (h) = FGFR4 (h) (Homo sapiens, UniProt P22455); experiment: FGFR4 (enzymatic assay), TR-FRET; format: biochemical; details: FGFR 4 pIC50, enzymatic assay
Sequence of FGFR4 (h) (P22455 22-802): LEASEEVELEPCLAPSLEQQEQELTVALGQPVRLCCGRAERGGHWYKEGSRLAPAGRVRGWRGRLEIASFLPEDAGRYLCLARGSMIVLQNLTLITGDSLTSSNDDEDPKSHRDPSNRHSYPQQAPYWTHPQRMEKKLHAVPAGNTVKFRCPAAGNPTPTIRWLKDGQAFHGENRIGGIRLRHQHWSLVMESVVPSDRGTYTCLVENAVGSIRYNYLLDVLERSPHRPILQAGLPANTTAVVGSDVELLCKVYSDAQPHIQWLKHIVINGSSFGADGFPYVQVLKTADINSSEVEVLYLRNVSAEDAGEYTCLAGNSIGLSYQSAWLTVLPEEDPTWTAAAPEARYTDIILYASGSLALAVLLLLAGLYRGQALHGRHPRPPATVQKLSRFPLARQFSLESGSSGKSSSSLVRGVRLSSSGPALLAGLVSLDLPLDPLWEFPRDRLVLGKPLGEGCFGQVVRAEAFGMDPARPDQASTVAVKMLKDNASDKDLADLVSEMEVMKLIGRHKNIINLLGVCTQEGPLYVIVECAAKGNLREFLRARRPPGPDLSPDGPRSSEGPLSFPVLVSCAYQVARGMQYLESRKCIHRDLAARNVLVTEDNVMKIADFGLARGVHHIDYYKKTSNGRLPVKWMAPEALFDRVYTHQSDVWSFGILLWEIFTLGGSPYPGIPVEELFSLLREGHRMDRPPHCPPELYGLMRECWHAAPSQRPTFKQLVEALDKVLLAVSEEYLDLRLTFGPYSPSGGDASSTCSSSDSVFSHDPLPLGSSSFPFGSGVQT

[2] = system: Ba/F3-KDR-transfected cells; experiment: Ba/F3-KDR (plus IL3) cellular proliferation assay, counterscreen with 10 ng/ml murine IL3; format: cell-based; details: plus IL3 (10 ng/ml murine IL3, counterscreen); read-out: BAF3-KDR (PLUS IL3) pIC50 (converted)
How it was run: (§2)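 Compound in DMSO was dispensed first, then transfected cells in serum-containing RPMI-1640 were added. After a 24 h incubation, viability was gauged by resazurin reduction over 4 h, measured as fluorescence.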

[3] = target: T2, Ba/F3-FGFR1-transfected cells (Homo sapiens, UniProt P11362); experiment: Ba/F3-FGFR1 (minus IL3) cellular proliferation assay, Alamar Blue; format: cell-based
T2 construct: BAF3-FGFR1 (MIN IL3) pIC50; other: minus IL3
T2 sequence (P11362 whole entry, change not shown): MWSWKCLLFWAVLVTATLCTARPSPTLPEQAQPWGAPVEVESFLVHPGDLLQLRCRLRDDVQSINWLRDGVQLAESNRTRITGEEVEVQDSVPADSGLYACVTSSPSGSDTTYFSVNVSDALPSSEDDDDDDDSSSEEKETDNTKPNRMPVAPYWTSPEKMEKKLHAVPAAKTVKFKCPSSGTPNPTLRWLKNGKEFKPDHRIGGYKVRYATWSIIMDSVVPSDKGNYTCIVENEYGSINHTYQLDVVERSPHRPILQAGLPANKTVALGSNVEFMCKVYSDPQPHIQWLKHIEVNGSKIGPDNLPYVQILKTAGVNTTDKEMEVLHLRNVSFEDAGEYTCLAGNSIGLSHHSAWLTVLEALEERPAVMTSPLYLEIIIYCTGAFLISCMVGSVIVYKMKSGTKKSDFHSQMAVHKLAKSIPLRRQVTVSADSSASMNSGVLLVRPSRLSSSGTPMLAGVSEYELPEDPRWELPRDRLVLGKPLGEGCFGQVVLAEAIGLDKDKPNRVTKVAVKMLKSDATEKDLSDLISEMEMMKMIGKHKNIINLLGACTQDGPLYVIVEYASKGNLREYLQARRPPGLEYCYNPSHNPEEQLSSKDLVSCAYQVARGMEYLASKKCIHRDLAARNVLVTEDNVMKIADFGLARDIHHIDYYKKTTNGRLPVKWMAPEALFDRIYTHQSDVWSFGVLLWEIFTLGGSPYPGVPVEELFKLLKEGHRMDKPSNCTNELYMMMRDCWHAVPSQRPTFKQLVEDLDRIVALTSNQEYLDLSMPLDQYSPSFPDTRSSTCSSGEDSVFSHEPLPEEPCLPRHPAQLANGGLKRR
How it was run: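 Read-out: resazurin reduction, fluorescence ex 540 nm/em 590 nm after 4 h Alamar Blue at 37 °C. Before that, FGFR1-transfected Ba/F3 cells (20000/well) sat with compound for 24 h in RPMI-1640/10% FBS/2 mM L-Gln.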

[4] = target: T3, Ba/F3-KDR-transfected cells (Homo sapiens, UniProt P35968); experiment: Ba/F3-KDR (minus IL3) cellular proliferation assay, Alamar Blue; format: cell-based
T3 construct: BAF3-KDR (MIN IL3) pIC50; other: minus IL3
T3 sequence (P35968 whole entry, change not shown): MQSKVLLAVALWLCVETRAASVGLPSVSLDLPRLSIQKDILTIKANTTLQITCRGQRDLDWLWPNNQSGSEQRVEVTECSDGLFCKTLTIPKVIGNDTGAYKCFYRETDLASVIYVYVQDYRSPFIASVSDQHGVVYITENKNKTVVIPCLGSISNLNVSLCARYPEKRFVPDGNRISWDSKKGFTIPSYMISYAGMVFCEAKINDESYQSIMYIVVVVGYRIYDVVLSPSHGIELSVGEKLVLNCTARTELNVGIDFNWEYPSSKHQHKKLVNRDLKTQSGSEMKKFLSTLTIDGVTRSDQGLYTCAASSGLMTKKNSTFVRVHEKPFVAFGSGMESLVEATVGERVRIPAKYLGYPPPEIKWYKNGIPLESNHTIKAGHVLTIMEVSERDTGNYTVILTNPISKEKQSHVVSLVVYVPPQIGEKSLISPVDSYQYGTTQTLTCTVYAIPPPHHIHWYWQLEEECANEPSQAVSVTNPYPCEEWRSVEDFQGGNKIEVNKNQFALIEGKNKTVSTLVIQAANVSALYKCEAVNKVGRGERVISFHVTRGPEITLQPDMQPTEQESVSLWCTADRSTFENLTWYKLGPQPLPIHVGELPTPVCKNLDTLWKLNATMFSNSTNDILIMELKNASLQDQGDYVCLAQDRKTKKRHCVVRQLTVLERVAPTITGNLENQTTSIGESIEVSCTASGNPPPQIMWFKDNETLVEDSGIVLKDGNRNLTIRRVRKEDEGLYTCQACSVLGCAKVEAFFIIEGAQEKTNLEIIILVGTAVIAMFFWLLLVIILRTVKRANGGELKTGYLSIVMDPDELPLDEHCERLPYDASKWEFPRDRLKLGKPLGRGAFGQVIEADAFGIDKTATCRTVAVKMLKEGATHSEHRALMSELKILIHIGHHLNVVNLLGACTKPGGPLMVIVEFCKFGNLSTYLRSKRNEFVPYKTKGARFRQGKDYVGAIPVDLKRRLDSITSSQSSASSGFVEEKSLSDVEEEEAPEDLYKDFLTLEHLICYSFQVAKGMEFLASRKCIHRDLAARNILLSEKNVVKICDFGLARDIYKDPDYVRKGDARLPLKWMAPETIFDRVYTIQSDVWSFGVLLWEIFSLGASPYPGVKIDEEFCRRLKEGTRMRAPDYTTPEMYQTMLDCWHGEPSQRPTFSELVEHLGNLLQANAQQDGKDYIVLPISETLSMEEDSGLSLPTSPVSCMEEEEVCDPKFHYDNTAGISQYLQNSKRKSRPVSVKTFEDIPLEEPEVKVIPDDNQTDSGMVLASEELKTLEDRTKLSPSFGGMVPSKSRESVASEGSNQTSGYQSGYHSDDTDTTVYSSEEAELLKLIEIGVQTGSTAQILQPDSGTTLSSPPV
How it was run: as §2

[5] = system: Ba/F3-FGFR3-transfected cells; experiment: Ba/F3-FGFR3 (plus IL3) cellular proliferation assay, counterscreen with 10 ng/ml murine IL3; format: cell-based; details: plus IL3 (10 ng/ml murine IL3, counterscreen); read-out: BAF3-FGFR3 (PLUS IL3) pIC50 (converted)
How it was run: as §1

FGFR2 (h) = FGFR2 (h) (Homo sapiens, UniProt P21802); experiment: FGFR2 (enzymatic assay), TR-FRET; format: biochemical; details: enzymatic assay, read-out: FGFR 2 pIC50 (converted)
Sequence of FGFR2 (h) (P21802 22-821): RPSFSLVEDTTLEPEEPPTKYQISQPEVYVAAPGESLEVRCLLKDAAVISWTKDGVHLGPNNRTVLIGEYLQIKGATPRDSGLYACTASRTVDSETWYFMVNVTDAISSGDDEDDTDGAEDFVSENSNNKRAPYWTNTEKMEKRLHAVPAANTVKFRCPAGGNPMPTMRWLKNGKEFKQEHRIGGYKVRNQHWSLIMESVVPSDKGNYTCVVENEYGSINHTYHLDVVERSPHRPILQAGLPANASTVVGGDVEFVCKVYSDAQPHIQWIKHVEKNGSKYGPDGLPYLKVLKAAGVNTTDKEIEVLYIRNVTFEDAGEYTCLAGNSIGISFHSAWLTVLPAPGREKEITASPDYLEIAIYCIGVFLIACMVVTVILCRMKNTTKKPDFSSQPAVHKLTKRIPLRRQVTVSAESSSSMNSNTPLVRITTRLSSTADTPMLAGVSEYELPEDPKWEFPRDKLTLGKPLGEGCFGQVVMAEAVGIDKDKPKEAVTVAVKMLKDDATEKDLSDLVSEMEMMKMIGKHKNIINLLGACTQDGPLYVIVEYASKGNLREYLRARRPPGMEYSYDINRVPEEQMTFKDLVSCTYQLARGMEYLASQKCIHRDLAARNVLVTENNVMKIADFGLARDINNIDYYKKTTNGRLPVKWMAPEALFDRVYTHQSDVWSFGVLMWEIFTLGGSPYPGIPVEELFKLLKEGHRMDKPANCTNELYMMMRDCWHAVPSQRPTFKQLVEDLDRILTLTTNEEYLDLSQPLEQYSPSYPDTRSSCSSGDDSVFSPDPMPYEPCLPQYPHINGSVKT
How it was run: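 Phosphorylation of 500 nM Btn-Flt3 by human FGFR2 (150 ng/ml) is measured at 0.4 μM ATP. The buffer is 50 mM HEPES pH 7.5 containing 6 mM MnCl2, 1 mM DTT, 0.1 mM Na3VO4 and 0.01% Triton-X-100, and compound is tested at 1% DMSO final.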

[6] = average values if tested multiple times

T1 sequence (P22607 whole entry, change not shown): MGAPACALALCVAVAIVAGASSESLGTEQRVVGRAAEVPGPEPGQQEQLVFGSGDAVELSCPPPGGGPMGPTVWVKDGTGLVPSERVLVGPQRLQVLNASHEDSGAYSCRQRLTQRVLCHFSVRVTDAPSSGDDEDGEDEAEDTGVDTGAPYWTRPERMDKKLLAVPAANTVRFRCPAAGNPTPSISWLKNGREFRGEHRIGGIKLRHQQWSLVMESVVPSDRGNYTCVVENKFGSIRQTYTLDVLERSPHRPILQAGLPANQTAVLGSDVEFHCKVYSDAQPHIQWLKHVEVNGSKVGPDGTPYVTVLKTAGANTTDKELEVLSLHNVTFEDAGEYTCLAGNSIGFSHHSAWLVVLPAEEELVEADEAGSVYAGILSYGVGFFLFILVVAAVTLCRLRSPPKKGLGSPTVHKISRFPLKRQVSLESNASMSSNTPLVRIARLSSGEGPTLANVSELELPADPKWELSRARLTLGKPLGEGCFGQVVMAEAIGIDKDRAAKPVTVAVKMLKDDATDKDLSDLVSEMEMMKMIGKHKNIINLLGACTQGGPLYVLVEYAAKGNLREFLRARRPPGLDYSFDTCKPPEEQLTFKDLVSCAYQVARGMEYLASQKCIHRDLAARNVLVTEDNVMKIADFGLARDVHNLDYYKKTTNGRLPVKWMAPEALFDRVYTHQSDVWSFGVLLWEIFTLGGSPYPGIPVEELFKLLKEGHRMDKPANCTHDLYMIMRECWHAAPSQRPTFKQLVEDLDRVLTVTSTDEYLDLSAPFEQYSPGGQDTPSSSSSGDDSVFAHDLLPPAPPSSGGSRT

Structure (SMILES)	BAF3-FGFR3 (MIN IL3) pIC50 [1]	IC50 (FGFR4 (h); [6]) [nM]	IC50 [2] [nM]	BAF3-FGFR1 (MIN IL3) pIC50 [3]	BAF3-KDR (MIN IL3) pIC50 [4]	IC50 [5] [nM]	IC50 (FGFR2 (h); [6]) [nM]	IC50 (FGFR4 (h)) [nM]	IC50 (FGFR2 (h)) [nM]
COc1cc(OC)c(F)c(N(CCCN2CCCC2=O)c2ccc3ncc(-c4cnn(C)c4)nc3n2)c1F [Compound 56]	7.87	2.29	> 10000	7.53	6.60	> 10000	2.82		
COc1cc(/N=c2\ccc3ncc(-c4cnn(C)c4)nc3n2CCNC(C)C)c(F)c(OC)c1 [Compound 37]	~7.65	15.5	> 10000	7.78	6.11	> 10000	4.47		
COc1cc(OC)c(F)c(N(Cc2nncn2C)c2ccc3ncc(-c4cnn(C)c4)nc3n2)c1 [Compound 132]	~6.64		> 10000	6.62	5.38	> 10000		17.4	3.02
COc1cc(OC)c(Cl)c(N(Cc2ncc[nH]2)c2ccc3ncc(-c4cnn(C)c4)nc3n2)c1Cl [Compound 98]	7.65	7.76	> 10000	7.72	6.19	> 10000	4.37		
COc1cc(/N=c2\ccc3ncc(-c4cnn(C)c4)nc3n2CC2COC(=O)N2)c(F)c(OC)c1 (centres unmarked) [Compound 123]	7.16		> 10000	7.21	5.53	> 10000		2.75	1.26
COCC(O)CN(c1ccc2ncc(-c3cnn(C)c3)nc2n1)c1c(F)c(OC)cc(OC)c1F (centres unmarked) [Compound 50]	~8.11	3.24	> 10000	8.10	6.23	> 10000	3.89		
COc1cc(OC)cc(N(CC2CCCCO2)c2ccc3ncc(-c4cnn(C)c4)nc3n2)c1 (centres unmarked) [Compound 129]	~7.15		> 10000	~7.15	5.33	> 10000		7.76	2.4
COc1cc(OC)cc(N(Cc2ncc[nH]2)c2ccc3ncc(-c4cnn(C)c4)nc3n2)c1 [Compound 24]	8.20	0.741	> 10000	8.46	6.22	> 10000	1.12		
COc1cc(OC)c(Cl)c(/N=c2\ccc3ncc(-c4cnn(C)c4)nc3n2CC2CCC(=O)N2)c1Cl (single isomer, unassigned) [Compound 87]	~6.93	38.9	> 10000	6.84	5.45	> 10000	6.03		
COc1cc(OC)c(Cl)c(N(C[C@H]2CCC(=O)N2)c2ccc3ncc(-c4cnn(C)c4)nc3n2)c1Cl [Compound 97]	~6.83	26.3	> 10000	6.80	5.35	> 10000	6.61		
COc1cc(OC)c(Cl)c(N(CC2CCC(=O)N2)c2ccc3ncc(-c4cnn(C)c4)nc3n2)c1Cl (single isomer, unassigned) [Compound 88]	6.57	42.7	> 10000	6.68	5.14	> 10000	9.12		
COc1cc(OC)c(F)c(N(CC2COC(=O)N2)c2ccc3ncc(-c4cnn(C)c4)nc3n2)c1 (centres unmarked) [Compound 124]	~7.16		> 10000	~7.16	5.49	> 10000		4.27	2.75
COc1cc(OC)c(F)c(/N=c2\ccc3ncc(-c4cnn(C)c4)nc3n2CCN)c1F [Compound 68]	7.70	2	> 10000	7.86	6.07	> 10000	1.58		
COc1cc(O)cc(N(Cc2ncc[nH]2)c2ccc3ncc(-c4cnn(C)c4)nc3n2)c1F [Compound 95]	~8.46	0.537	> 10000	8.83	6.85	> 9330	0.955		
COc1ccc(F)c(N(Cc2ncc[nH]2)c2ccc3ncc(-c4cnn(C)c4)nc3n2)c1Cl [Compound 73]	7.46	15.1	> 10000	7.59	5.55	> 10000	2.82		
COc1cc(/N=c2\ccc3ncc(-c4cnn(C)c4)nc3n2Cc2ccnn2C)c(F)c(OC)c1 [Compound 114]	~7.66	0.891	> 10000	7.63	~7.05	> 10000	1.62		
CNCCN(c1ccc2ncc(-c3cnn(C)c3)nc2n1)c1c(Cl)c(OC)cc(OC)c1Cl [Compound 81]	6.67	70.8	> 10000	7.04	5.36	> 10000	9.12		
COc1cc(OC)c(F)c(N(Cc2cn[nH]c2)c2ccc3ncc(-c4cnn(C)c4)nc3n2)c1 [Compound 125]	~7.57		> 10000	7.61	6.21	> 10000		1.58	0.794
COc1cc(OC)c(F)c(N(Cc2nccn2C)c2ccc3ncc(-c4cnn(C)c4)nc3n2)c1 [Compound 131]	7.25		> 10000	7.62	5.50	> 10000		7.41	2.63
COc1cc(OC)c(Cl)c(N(Cc2ncc[nH]2)c2ccc3ncc(-c4cnn(C)c4)nc3n2)c1 [Compound 42]	~8.3	3.02	> 10000	8.57	6.89	> 10000	2.04		
